What was measured:
Experiment in all cases: pIC50, kinobeads binding competition
Settings in all cases: cell material: Jurkat lysate
[1] = target: T1, PHKG2 (UniProt P15735)
T1 sequence (whole entry): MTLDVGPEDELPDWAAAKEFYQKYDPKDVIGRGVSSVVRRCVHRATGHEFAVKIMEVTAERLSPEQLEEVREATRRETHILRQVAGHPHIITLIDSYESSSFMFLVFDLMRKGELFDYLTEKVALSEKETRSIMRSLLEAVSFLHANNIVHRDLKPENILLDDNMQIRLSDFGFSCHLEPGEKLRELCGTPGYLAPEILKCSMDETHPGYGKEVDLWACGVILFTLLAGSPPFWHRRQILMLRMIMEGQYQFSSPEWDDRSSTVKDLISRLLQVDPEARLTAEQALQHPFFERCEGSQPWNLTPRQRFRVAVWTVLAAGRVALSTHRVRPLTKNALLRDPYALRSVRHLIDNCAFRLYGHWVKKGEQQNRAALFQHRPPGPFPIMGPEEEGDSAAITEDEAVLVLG

[2] = target: T2, SNRK (UniProt Q9NRH2)
T2 sequence (whole entry): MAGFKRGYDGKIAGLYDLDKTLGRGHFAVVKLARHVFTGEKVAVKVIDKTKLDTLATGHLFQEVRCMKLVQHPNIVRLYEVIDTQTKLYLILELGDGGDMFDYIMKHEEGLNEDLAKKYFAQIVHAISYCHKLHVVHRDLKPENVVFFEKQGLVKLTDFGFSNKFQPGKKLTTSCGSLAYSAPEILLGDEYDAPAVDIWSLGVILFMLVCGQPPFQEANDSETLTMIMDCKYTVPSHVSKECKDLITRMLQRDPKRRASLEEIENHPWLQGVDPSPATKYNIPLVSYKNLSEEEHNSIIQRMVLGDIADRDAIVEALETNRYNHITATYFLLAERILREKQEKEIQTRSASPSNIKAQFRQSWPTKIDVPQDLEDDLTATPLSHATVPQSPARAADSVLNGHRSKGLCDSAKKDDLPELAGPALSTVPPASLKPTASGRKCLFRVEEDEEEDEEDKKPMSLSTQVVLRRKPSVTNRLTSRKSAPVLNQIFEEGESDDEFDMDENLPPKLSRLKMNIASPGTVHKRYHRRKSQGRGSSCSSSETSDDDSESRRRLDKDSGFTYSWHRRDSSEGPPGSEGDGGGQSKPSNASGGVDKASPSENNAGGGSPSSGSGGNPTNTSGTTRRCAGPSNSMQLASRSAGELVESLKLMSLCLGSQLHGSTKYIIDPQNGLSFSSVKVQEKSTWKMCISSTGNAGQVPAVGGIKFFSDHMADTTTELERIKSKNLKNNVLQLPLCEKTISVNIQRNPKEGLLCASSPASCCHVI

[3] = target: MELK (UniProt Q14680)
Sequence of MELK (Q14680 whole entry, looked up): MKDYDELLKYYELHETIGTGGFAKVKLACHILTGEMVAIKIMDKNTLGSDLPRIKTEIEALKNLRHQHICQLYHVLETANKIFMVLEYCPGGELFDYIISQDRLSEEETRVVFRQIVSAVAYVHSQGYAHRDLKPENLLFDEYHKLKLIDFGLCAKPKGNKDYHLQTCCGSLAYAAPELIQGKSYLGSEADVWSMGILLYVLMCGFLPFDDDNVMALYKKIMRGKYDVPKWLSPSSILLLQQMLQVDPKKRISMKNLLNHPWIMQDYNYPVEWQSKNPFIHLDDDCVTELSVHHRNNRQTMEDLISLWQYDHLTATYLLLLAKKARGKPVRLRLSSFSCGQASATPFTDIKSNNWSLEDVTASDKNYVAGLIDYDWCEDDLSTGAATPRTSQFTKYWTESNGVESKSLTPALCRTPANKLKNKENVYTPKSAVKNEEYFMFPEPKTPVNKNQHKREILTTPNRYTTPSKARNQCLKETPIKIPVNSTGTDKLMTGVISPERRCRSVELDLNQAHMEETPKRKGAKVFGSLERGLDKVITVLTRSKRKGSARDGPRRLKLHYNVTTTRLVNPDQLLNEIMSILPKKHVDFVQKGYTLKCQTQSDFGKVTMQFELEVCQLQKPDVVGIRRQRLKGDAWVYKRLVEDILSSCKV

[4] = target: T3, EPHB6 (UniProt O15197)
T3 sequence (whole entry): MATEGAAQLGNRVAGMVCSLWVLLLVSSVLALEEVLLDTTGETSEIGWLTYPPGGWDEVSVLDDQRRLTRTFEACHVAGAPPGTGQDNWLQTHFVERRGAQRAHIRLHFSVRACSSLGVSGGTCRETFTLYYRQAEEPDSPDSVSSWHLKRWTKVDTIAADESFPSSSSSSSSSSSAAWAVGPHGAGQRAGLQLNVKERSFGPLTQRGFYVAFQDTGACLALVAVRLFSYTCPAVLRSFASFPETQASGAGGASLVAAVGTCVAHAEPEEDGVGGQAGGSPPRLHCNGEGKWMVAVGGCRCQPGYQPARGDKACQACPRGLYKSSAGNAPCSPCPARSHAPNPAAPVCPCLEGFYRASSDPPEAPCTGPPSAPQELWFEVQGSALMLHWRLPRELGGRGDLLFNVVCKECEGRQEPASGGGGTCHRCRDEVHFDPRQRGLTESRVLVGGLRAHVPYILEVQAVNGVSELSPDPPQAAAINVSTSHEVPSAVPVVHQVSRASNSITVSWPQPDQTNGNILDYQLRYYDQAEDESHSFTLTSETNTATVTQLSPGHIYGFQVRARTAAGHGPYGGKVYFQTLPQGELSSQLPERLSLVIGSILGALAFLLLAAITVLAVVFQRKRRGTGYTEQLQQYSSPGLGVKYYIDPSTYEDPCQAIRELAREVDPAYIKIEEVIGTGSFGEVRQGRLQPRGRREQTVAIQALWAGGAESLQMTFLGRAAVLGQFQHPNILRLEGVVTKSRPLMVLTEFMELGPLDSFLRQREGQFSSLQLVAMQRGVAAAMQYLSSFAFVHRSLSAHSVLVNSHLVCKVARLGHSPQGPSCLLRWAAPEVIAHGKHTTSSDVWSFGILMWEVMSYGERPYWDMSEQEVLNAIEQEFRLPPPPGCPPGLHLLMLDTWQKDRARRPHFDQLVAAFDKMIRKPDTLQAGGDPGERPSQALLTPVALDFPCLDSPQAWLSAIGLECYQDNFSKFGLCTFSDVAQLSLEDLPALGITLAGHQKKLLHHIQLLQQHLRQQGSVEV

Measured: pIC50

CCc1cnn2c(NCc3ccc[n+]([O-])c3)cc(N3CCCC[C@H]3CCO)nc12 [dinaciclib]
< 4.52: [1] | [2] | [3] | [4]

From the supplement of paper PMC12076712
